Values belong to the compound of their own block, whether it stands above or below them.
How the values were obtained:
[1] = target: Calcium/calmodulin-dependent protein kinase kinase 2 (Homo sapiens, UniProt Q96RR4); experiment: Induction of ePL tagged degradation of CaMKK2 (unknown origin) expressed in […] cells incubated for 24 hrs by luminescence based analysis; format: cell-based, HEK293T
[2] = target: Calcium/calmodulin-dependent protein kinase kinase 1 (Homo sapiens, UniProt Q8N5S9); experiment: Inhibition of CaMKK1 (unknown origin) incubated for 20 mins in presence of kinase tracer 236 by TR-FRET
Chain of Calcium/calmodulin-dependent protein kinase kinase 1 (Q8N5S9 whole entry): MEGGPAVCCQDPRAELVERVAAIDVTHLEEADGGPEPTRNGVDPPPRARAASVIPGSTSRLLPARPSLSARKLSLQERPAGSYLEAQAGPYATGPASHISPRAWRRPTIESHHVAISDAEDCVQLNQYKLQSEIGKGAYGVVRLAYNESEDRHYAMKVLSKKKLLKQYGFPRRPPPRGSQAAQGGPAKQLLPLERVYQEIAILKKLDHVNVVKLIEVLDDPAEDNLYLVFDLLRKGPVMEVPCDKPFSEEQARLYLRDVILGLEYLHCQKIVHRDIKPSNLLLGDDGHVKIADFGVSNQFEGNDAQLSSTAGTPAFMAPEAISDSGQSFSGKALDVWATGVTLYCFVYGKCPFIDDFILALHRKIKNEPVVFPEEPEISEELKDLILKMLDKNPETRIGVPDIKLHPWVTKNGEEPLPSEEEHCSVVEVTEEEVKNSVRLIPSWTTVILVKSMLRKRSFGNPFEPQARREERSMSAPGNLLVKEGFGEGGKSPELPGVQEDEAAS

[3] = Volume of distribution at steady state in Sprague-Dawley rat at 3 mg/kg, po or 1 mg/kg, iv measured upto 24 hrs; format: ADME, organism-based; settings: in vivo
[4] = Half life in Sprague-Dawley rat at 3 mg/kg, po or 1 mg/kg, iv measured upto 24 hrs; format: ADME, organism-based; settings: in vivo
[5] = AUC (0 to 24 hrs) in Sprague-Dawley rat at 3 mg/kg, po or 1 mg/kg, iv measured upto 24 hrs; format: ADME, organism-based; parameters: time < 24 hrs, dose 3 mg/kg, route po; settings: in vivo
[6] = Cmax in Sprague-Dawley rat at 3 mg/kg, po or 1 mg/kg, iv measured upto 24 hrs; format: ADME, organism-based; parameters: dose 3 mg/kg, time < 24 hrs, route po; settings: in vivo
[7] = Tmax in Sprague-Dawley rat at 3 mg/kg, po or 1 mg/kg, iv measured upto 24 hrs; format: ADME, organism-based; settings: in vivo
[8] = Bioavailability in Sprague-Dawley rat 3 mg/kg, po or 1 mg/kg, iv measured upto 24 hrs; format: ADME, organism-based; settings: in vivo
[9] = Plasma protein binding in Sprague-Dawley rat; format: ADME, cell-free; settings: read-out: PPB (converted)
[10] = target: Voltage-gated inwardly rectifying potassium channel KCNH2 (Homo sapiens, UniProt Q12809); experiment: Inhibition of human ERG; format: toxicity
Chain of Voltage-gated inwardly rectifying potassium channel KCNH2 (Q12809 whole entry): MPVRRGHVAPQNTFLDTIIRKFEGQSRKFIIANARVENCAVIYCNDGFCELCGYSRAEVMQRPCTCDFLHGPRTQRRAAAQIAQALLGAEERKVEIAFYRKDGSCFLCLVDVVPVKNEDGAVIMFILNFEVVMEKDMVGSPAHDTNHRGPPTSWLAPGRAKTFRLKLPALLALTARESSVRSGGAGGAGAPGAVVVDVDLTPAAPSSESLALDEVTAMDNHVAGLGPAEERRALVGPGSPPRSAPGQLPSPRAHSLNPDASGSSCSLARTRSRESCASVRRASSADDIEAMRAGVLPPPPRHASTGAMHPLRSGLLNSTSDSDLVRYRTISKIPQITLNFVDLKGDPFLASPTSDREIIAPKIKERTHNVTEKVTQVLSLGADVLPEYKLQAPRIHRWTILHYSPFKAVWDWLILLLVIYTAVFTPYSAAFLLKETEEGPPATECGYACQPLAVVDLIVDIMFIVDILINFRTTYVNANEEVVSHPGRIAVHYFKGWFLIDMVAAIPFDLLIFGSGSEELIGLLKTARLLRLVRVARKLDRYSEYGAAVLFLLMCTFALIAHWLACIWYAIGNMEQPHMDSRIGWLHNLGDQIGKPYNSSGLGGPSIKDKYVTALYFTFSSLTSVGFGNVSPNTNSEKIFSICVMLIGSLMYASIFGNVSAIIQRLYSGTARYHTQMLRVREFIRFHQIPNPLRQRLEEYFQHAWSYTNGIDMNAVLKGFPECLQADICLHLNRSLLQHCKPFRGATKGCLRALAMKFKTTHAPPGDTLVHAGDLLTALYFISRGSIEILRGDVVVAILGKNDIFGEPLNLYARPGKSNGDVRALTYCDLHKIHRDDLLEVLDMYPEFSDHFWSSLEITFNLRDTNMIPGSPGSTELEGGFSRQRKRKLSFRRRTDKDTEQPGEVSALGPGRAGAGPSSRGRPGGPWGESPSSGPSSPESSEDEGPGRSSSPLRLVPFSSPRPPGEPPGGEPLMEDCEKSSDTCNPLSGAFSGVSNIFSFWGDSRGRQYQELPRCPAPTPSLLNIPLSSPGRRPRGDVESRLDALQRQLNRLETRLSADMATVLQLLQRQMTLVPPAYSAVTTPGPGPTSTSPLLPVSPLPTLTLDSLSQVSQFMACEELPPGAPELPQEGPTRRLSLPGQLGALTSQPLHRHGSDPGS

[11] = Plasma protein binding in human; format: ADME, cell-free; parameters: dose or concentration left out as unconfirmed; settings: route po, read-out: PPB (converted)
[12] = Volume of distribution in steady state in Beagle dog at 3 mg/kg, po or 1 mg/kg, iv measured upto 72 hrs; format: ADME, organism-based, Canis lupus familiaris; settings: in vivo
[13] = Half life in Beagle dog at 3 mg/kg, po or 1 mg/kg, iv measured upto 72 hrs; format: ADME, organism-based, Canis lupus familiaris; settings: in vivo
[14] = AUC (0 to 72 hrs) in Beagle dog at 3 mg/kg, po or 1 mg/kg, iv measured upto 72 hrs; format: ADME, organism-based, Canis lupus familiaris; parameters: dose 3 mg/kg, time < 72 hrs, route po; settings: in vivo
[15] = Cmax in Beagle dog at 3 mg/kg, po or 1 mg/kg, iv measured upto 72 hrs; format: ADME, organism-based, Canis lupus familiaris; parameters: time < 72 hrs, dose 3 mg/kg, route po; settings: in vivo
[16] = Tmax in Beagle dog at 3 mg/kg, po or 1 mg/kg, iv measured upto 72 hrs; format: ADME, organism-based, Canis lupus familiaris; settings: in vivo
[17] = Bioavailability in Beagle dog at 3 mg/kg, po or 1 mg/kg, iv measured upto 72 hrs; format: ADME, organism-based, Canis lupus familiaris; settings: in vivo
[18] = Plasma protein binding in Beagle dog; format: ADME, cell-free, Canis lupus familiaris; settings: read-out: PPB (converted)
[19] = Half life in Cynomolgus monkey at 3 mg/kg, po or 1 mg/kg, iv measured upto 72 hrs; format: ADME, organism-based, Macaca fascicularis; settings: in vivo
[20] = AUC (0 to 72 hrs) in Cynomolgus monkey at 3 mg/kg, po or 1 mg/kg, iv measured upto 72 hrs; format: ADME, organism-based, Macaca fascicularis; parameters: dose 3 mg/kg, time < 72 hrs, route po; settings: in vivo
[21] = Cmax in Cynomolgus monkey at 3 mg/kg, po or 1 mg/kg, iv measured upto 72 hrs; format: ADME, organism-based, Macaca fascicularis; parameters: time < 72 hrs, dose 3 mg/kg, route po; settings: in vivo
[22] = Tmax in Cynomolgus monkey at 3 mg/kg, po or 1 mg/kg, iv measured upto 72 hrs; format: ADME, organism-based, Macaca fascicularis; settings: in vivo
[23] = Bioavailability in Cynomolgus monkey at 3 mg/kg, po or 1 mg/kg, iv measured upto 72 hrs; format: ADME, organism-based, Macaca fascicularis; settings: in vivo
[24] = Plasma protein binding in Cynomolgus monkey; format: ADME, cell-free, Macaca fascicularis; settings: read-out: PPB (converted)
[25] = AUC (0 to 24 hrs) in C57BL/6 mouse at 10 mg/kg, po measured upto 72 hrs; format: ADME, organism-based; parameters: dose 10 mg/kg, time < 72 hrs, route po; settings: in vivo
[26] = Cmax in C57BL/6 mouse at 10 mg/kg, po measured upto 72 hrs; format: ADME, organism-based; parameters: time < 72 hrs, dose 10 mg/kg, route po; settings: in vivo
[27] = Oral bioavailability in C57BL/6 mouse at 10 mg/kg measured upto 72 hrs; format: ADME, organism-based; settings: in vivo
[28] = target: Von Hippel-Lindau disease tumor suppressor/Elongin B/Elongin C (Homo sapiens, UniProt P40337); experiment: Binding affinity to N-terminal 6 his tagged VHL (54 to 213 residues)/truncated ElonginC (17 to 122 residues) /full length ElonginB (unknown origin) expressed in Escherichia coli assessed as dissociation constant measured upto 300 secs by SPR analysis
Chain of Von Hippel-Lindau disease tumor suppressor/Elongin B/Elongin C (P40337 whole entry, looked up, the tested form may be a part): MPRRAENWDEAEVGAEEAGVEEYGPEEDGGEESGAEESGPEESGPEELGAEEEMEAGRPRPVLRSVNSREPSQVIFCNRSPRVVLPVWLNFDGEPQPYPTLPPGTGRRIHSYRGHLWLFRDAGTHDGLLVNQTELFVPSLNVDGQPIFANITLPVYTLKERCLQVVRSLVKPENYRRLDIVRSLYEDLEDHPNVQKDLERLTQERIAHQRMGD

A-427 = experiment: Antiproliferative activity against human A-427 cells assessed as reduction in cell growth incubated for 48 hrs by CellTiter assay; settings: A-427, 48 h
[29] = Half life in C57BL/6 mouse at 10 mg/kg, po measured upto 72 hrs; format: ADME, organism-based; settings: in vivo
[30] = Tmax in C57BL/6 mouse at 10 mg/kg, po measured upto 72 hrs; format: ADME, organism-based; settings: in vivo
[31] = Half life in C57BL/6 mouse at 10 mg/kg, sc measured upto 72 hrs; format: ADME, organism-based; settings: in vivo
[32] = Tmax in C57BL/6 mouse at 10 mg/kg, sc measured upto 72 hrs; format: ADME, organism-based; settings: in vivo
[33] = AUC (0 to 24 hrs) in C57BL/6 mouse at 10 mg/kg, sc measured upto 72 hrs; format: ADME, organism-based; parameters: time < 72 hrs, dose 10 mg/kg, route sc; settings: in vivo
[34] = Cmax in C57BL/6 mouse at 10 mg/kg, sc measured upto 72 hrs; format: ADME, organism-based; parameters: dose 10 mg/kg, time < 72 hrs, route sc; settings: in vivo
[35] = Bioavailability in C57BL/6 mouse at 10 mg/kg, sc measured upto 72 hrs; format: ADME, organism-based; settings: in vivo

Chain of Calcium/calmodulin-dependent protein kinase kinase 2 (Q96RR4 whole entry): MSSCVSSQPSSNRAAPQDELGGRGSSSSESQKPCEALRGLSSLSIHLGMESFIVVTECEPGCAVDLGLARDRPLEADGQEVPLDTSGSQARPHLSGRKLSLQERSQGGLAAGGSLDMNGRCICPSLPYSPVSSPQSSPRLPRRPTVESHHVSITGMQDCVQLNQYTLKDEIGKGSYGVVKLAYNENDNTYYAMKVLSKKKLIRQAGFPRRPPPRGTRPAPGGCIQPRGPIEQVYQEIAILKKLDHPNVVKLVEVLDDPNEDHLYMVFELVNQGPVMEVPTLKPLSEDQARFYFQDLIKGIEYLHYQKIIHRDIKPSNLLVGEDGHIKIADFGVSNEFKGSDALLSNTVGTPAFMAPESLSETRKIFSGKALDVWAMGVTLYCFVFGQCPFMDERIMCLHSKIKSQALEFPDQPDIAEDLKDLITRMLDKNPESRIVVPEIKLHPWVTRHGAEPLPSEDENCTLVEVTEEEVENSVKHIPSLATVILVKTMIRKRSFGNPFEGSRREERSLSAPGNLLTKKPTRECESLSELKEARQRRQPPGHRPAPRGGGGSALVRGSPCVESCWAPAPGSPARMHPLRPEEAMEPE

EC50 [1]: > 10000 nM
SMILES: Cc1ncsc1-c1ccc(CNC(=O)[C@@H]2C[C@@H](O)CN2C(=O)[C@@H](NC(=O)CCCCCOc2ccc3c(-c4ccc(C(=O)O)c(C5CCCC5)c4)ncnc3c2)C(C)(C)C)cc1

EC50 [1]: 4500 nM
SMILES: Cc1ncsc1-c1ccc(CNC(=O)[C@@H]2C[C@@H](O)CN2C(=O)[C@@H](NC(=O)CCCCCCCCCCCOc2ccc3c(-c4ccc(C(=O)O)c(C5CCCC5)c4)ncnc3c2)C(C)(C)C)cc1

EC50 [1]: 530 nM
SMILES: Cc1ncsc1-c1ccc(CNC(=O)[C@@H]2C[C@@H](O)CN2C(=O)[C@@H](NC(=O)CCCCCCCCCCOc2ccc3c(-c4ccc(C(=O)O)c(C5CCCC5)c4)ncnc3c2)C(C)(C)C)cc1

EC50 [1]: 620 nM
SMILES: Cc1ncsc1-c1ccc(CNC(=O)[C@@H]2C[C@@H](O)CN2C(=O)[C@@H](NC(=O)CCCCCCCCOc2ccc3c(-c4ccc(C(=O)O)c(C5CCCC5)c4)ncnc3c2)C(C)(C)C)cc1

EC50 [1]: 510 nM
SMILES: Cc1ncsc1-c1ccc(CNC(=O)[C@@H]2C[C@@H](O)CN2C(=O)[C@@H](NC(=O)CCCCCCCOc2ccc3c(-c4ccc(C(=O)O)c(C5CCCC5)c4)ncnc3c2)C(C)(C)C)cc1

IC50 [2]: 54 nM
SMILES: CCOc1cc2ncnc(-c3ccc(C(=O)O)c(C4CCCC4)c3)c2cc1F

EC50 [1]: > 10000 nM
SMILES: Cc1ncsc1-c1ccc(CNC(=O)[C@@H]2C[C@@H](O)CN2C(=O)[C@@H](N(C)C(=O)CCCCCCCCCOc2ccc3c(-c4ccc(C(=O)O)c(C5CCCC5)c4)ncnc3c2)C(C)(C)C)cc1

IC50 [2]: 12 nM
Vdss [3]: 0.57 L/kg
half-life [4]: 4.9 h
AUC(0-t) at 24 h [5]: 58 µM·h
Cmax [6]: 19 µM
Tmax [7]: 3 h
bioavailability [8]: 80%
fraction unbound [9]: 0.012
fraction unbound at 72 h [11]: 0.003
Vdss [12]: 0.44 L/kg
half-life [13]: 11 h
AUC(0-t) at 72 h [14]: 79 µM·h
Cmax [15]: 30 µM
Tmax [16]: 0.5 h
bioavailability [17]: 68%
fraction unbound [18]: 0.02
half-life [19]: 20 h
AUC(0-t) at 72 h [20]: 282 µM·h
Cmax [21]: 28 µM
Tmax [22]: 1.7 h
bioavailability [23]: 95%
fraction unbound [24]: 0.007
SMILES: CCOc1cc(F)c2c(-c3ccc(C(=O)O)c(C(C)C)c3)ncnc2c1
IC50 [10]: > 30000 nM

IC50 [2]: 11 nM
SMILES: CCOc1cc2ncnc(-c3ccc(C(=O)O)c(C(C)C)c3)c2cc1F

IC50 [2]: 47 nM
SMILES: CCOc1ccc2c(-c3ccc(C(=O)O)c(C(C)C)c3)ncnc2c1

EC50 [1]: 2000 nM
SMILES: Cc1ncsc1-c1ccc(CNC(=O)[C@@H]2C[C@@H](O)CN2C(=O)[C@@H](NC(=O)CCCCCCOc2ccc3c(-c4ccc(C(=O)O)c(C5CCCC5)c4)ncnc3c2)C(C)(C)C)cc1

IC50 [2]: 94 nM
AUC(0-t) at 72 h [25]: 3.96 µM·h
Cmax [26]: 3.21 µM
bioavailability [27]: 18%
Kd [28]: 130 nM
half-life [29]: 8.1 h
Tmax [30]: 0.5 h
half-life [31]: 24 h
Tmax [32]: 0.5 h
AUC(0-t) at 72 h [33]: 39.9 µM·h
Cmax [34]: 7.18 µM
bioavailability [35]: 100%
SMILES: Cc1ncsc1-c1ccc(CNC(=O)[C@@H]2C[C@@H](O)CN2C(=O)[C@@H](NC(=O)CCCCCCCCCOc2ccc3c(-c4ccc(C(=O)O)c(C5CCCC5)c4)ncnc3c2)C(C)(C)C)cc1
EC50 (A-427): > 8000 nM
